Entries after “also recorded” stand apart in the source; their conditions may differ.
What was measured:
[1] = system: Human promyelocytic leukemia (HL60) cells; assay: HL-60 differentiation (nitro blue tetrazolium reduction); format: cell-based; conditions: four days, FIG. 2
Procedure: The study drugs were dissolved in ethanol and the concentrations determined using UV spectrophotometry. Serial dilutions were prepared so that a range of drug concentrations could be tested without changing the final concentration of ethanol (≦0.2%) present in the cell cultures.
Human promyelocytic leukemia (HL60) cells were grown in RPMI-1640 medium containing 10% fetal bovine serum. The cells were incubated at 37° C. in the presence of 5% CO2.
HL60 cells were plated at 1.2×10^5 cells/ml. Eighteen hours after plating, cells in duplicate were treated with drug. Four days later, the cells were harvested and a nitro blue tetrazolium reduction assay was performed (Collins et al., 1979; J. Exp. Med. 149:969-974). The percentage of differentiated cells was determined by counting a total of 200 cells and recording the number that contained intracellular black-blue formazan deposits. Verification of differentiation to monocytic cells was determined by measuring phagocytic activity (data not shown).

[2] = system: 24-hydroxylase (24 Ohase) gene promoter in ROS 17/2.8 (bone) cells; assay: In vitro transcription assay (24-hydroxylase promoter luciferase reporter); format: cell-based; conditions: for EC50: ROS 17/2.8 cells, 24-hydroxylase promoter luciferase, 16 h, FIG. 3, read-out: EC50, transcriptional activity in bone cells
Procedure: In Vitro Transcription Assay Transcription activity was measured in ROS 17/2.8 (bone) cells that were stably transfected with a 24-hydroxylase (24 Ohase) gene promoter upstream of a luciferase reporter gene (Arbour et al., 1998). Cells were given a range of doses. Sixteen hours after dosing the cells were harvested and luciferase activities were measured using a luminometer. RLU=relative luciferase units.

vitamin D-deficient rats [3] = assay: Bone calcium mobilization (serum calcium); format: in vivo, Sprague-Dawley rats
Text: Intestinal Calcium Transport and Bone Calcium Mobilization
Male, weanling Sprague-Dawley rats were placed on Diet 11 (Suda et al, J. Nutr. 100:1049, 1970) (0.47% Ca)+vitamins AEK for one week followed by Diet 11 (0.02% Ca)+vitamins AEK for 3 weeks. The rats were then switched to the same diet containing 0.47% Ca for one week followed by two weeks on the same diet containing 0.02% Ca. Dose administration began during the last week on 0.02% calcium diet. Four consecutive ip doses were given approximately 24 hours apart. Twenty-four hours after the last dose, blood was collected from the severed neck and the concentration of serum calcium determined by atomic absorption spectrometry as a measure of bone calcium mobilization. The first 10 cm of the intestine was also collected for intestinal calcium transport analysis using the everted gut sac method.

vitamin D-deficient rats [4] = assay: Intestinal calcium transport (everted gut sac method); format: in vivo, Sprague-Dawley rats; conditions: low calcium diet, 4 ip doses, relative to 1,25(OH)2D3, FIG. 5
Text: Dose administration began during the last week on 0.02% calcium diet. […] The first 10 cm of the intestine was also collected for intestinal calcium transport analysis using the everted gut sac method.

[5] = biological target: T1, full-length recombinant rat vitamin D receptor (Rattus norvegicus, UniProt P13053); assay: biochemical
T1 sequence (P13053 1-423): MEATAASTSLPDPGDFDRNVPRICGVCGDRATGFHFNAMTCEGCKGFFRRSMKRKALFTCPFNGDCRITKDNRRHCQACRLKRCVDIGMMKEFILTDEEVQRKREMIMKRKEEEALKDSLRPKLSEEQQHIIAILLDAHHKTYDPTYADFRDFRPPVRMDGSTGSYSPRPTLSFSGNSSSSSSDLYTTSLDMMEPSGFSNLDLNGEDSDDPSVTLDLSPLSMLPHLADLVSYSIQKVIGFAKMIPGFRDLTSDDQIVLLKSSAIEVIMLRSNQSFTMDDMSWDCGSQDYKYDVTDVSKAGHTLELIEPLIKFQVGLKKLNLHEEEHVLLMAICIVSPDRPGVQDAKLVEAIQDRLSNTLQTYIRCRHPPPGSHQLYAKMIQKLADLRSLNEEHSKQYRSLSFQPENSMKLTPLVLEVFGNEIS

EC50 ([1]; Homo sapiens, HL-60, 96 h) [nM] | Ki [5] [nM] | SMILES | EC50 [2] [nM] | times less potent than 1,25(OH)2D3 in increasing transcription of the 24-hydroxylase gene ([2]; bone cells, relative to 1,25(OH)2D3) | times less potent than 1,25(OH)2D3 in releasing bone calcium stores (vitamin D-deficient rats [3]; rats, low calcium diet, 4 ip doses, relative to 1,25(OH)2D3, FIG. 4) | times less potent than 1,25(OH)2D3 in promoting intestinal calcium transport (vitamin D-deficient rats [4]) | EC50 [1] [nM] | serum calcium levels (in words) (vitamin D-deficient rats [3]; 87 pmol and 780 pmol dosages, rats on 0.02% Ca diet, listed as 1,25(OH)2D3)
3 | 3 | C=C1[C@H](O)CC(=C/C=C2\CCC[C@]3(C)[C@@H]([C@H](C)CCCNC4CC4)CC[C@@H]23)C[C@H]1O [CPA-1, N-cyclopropyl-(20R)-2-methylene-19,26,27-trinor-25-aza-1α-hydroxyvitamin D3] | 3 | about 10 times | about 400 times | about 20 times | – | –
– | – | C=C1/C(=C\C=C2/CCC[C@]3(C)[C@@H]([C@H](C)CCCC(C)(C)O)CC[C@@H]23)C[C@@H](O)C[C@@H]1O [1α,25-dihydroxyvitamin D3, reference compound] | 0.2 | – | – | – | 2 | increased serum calcium levels; also recorded: significant increases in serum calcium
